For 18 compounds, GI50 and TGI results are on record in PubChem BioAssay (NCI).

Molecules are shown by their SMILES. Values joined by “and” are separate entries in the source; they are usually repeats but may differ in a detail not shown here. Identical values can stand only once.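 A five-concentration, 48-hour dose response in 96-well plates underlies each endpoint, interpolated linearly between surrounding concentrations. The concentration for 50% growth inhibition is given as GI50. TGI denotes the concentration required for complete inhibition of growth.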

The subject of one assay is NCI-H522 lung. The assay is described as follows: NCI anticancer screen, dose series, 48 h.
As to `COc1ccc(Cl)cc1Nc1nc(C(F)(F)F)ccc1C(=O)NN`, the GI50 was 4.09 µM and the TGI is more than 100 µM.
Regarding `CC(C)c1ccc2nc3ccc(C(=O)NCCN(C)C)cn3c(=O)c2c1`, the TGI is 29.3 µM.
Take `CNC(=O)Nc1ccc(-c2nc(N3CCOCC3)nc3c2cnn3C2CCOCC2)cc1`: the GI50 was 0.43 µM and the TGI is more than 100 µM.
In turn, `NCCCCNCCCNC(=O)CNC(=O)CC(O)C(N)CCCC(NC(=O)C(CN)NC(=O)C(O)CNC(=O)CC(N)c1ccc(O)cc1)C(=O)O` (configuration not stated) had a TGI of more than 10 µM.
Take `N/C(=N\OC(=O)c1ccccc1)C(C(=O)NOC(=O)c1ccccc1)C1CCCCC1` (configuration not stated): the GI50 is 2.82 µM and the TGI was determined as 7.76 µM.
Consider `CCOc1ccc(N=Nc2ccc3cc(/C(C)=N/NC(=O)/C(C#N)=C\c4ccc(N(CCC#N)CCC#N)cc4)c(=O)oc3c2)cc1`, for which the TGI is more than 10 µM.
For `O=C(O)c1cc[c]([Hg][S]c2ncnc3nc[nH]c23)cc1`, the GI50 was 1.08 µM and the TGI was 8.24 µM.
The like results for `O=C(Nc1ccc(OC(F)(F)F)cc1)c1sccc1NCc1ccnc2ccccc12` were, in that order, 3 µM and more than 72 µM.
As to `CCN(CC)c1ccc(NC(=S)NN(C)C)cc1`, the TGI was more than 10 µM.
Take `Nc1cc(N)c2nc(-c3ccccc3)c(Oc3ccc(F)cc3)nc2c1`: the GI50 is 64.7 µM and the TGI is more than 100 µM.
In the case of `CN1CCCN(CCNc2nccc(-c3c(-c4cccc(O)c4)nc4sccn34)n2)S1(=O)=O`, the GI50 was 5.54 µM and 9.27 µM; the TGI is 27.2 µM and 42.1 µM.
As for `CCOC(=O)c1c(NC(=O)c2ccc(C(C)C)cc2)sc2c(CN(C)C)c(O)ccc12`, the GI50 was 2.01 µM and the TGI is 4.53 µM.
As to `COc1ccc(C(=O)N2c3ccccc3Sc3ccccc32)c(F)c1`, the GI50 is 0.403 µM and the TGI was more than 100 µM.
Regarding `CC(O)CNC1=CC(=O)C(=O)c2ccccc21` (configuration not stated), the TGI is 41.8 µM.
Take `CC1(C)N=C(N)N=C(N)N1c1ccc(CCc2ccccc2)c(Cl)c1`: the GI50 was 0.236 µM and the TGI is 12.7 µM.
Take `Cc1ccc(C(=O)Nc2ccc(CN3CCN(C)CC3)c(C(F)(F)F)c2)cc1C#Cc1cnc(N)c2ccc(F)cc12`: the GI50 was 0.214 µM and the TGI worked out at 0.723 µM.
As to `CC1(C)CCC(C)(C)c2cc(C(=O)Nc3ccc(C(=O)O)cc3)ccc21`, the TGI worked out at 70.6 µM.
Compound `CC1=C(C(=O)NC2CCCCC2)CC(C(=O)NC2CCCCC2)=C(C)N1` returned a TGI of more than 100 µM.

For another assay, the system named is PC-3 prostate. Description: NCI anticancer screen, dose series, 48 h.
On to `COc1ccc(Cl)cc1Nc1nc(C(F)(F)F)ccc1C(=O)NN`, for which the GI50 is 2.84 µM and the TGI is more than 100 µM.
In the case of `CC(C)c1ccc2nc3ccc(C(=O)NCCN(C)C)cn3c(=O)c2c1`, the TGI amounted to 30.6 µM.
In the case of `CNC(=O)Nc1ccc(-c2nc(N3CCOCC3)nc3c2cnn3C2CCOCC2)cc1`, the GI50 was 0.0809 µM and the TGI came to 7.49 µM.
For the compound `NCCCCNCCCNC(=O)CNC(=O)CC(O)C(N)CCCC(NC(=O)C(CN)NC(=O)C(O)CNC(=O)CC(N)c1ccc(O)cc1)C(=O)O` (configuration not stated), the TGI was more than 10 µM.
On to `N/C(=N\OC(=O)c1ccccc1)C(C(=O)NOC(=O)c1ccccc1)C1CCCCC1` (configuration not stated), for which the GI50 is 6.33 µM and the TGI came out at 20.5 µM.
Turning to `CCOc1ccc(N=Nc2ccc3cc(/C(C)=N/NC(=O)/C(C#N)=C\c4ccc(N(CCC#N)CCC#N)cc4)c(=O)oc3c2)cc1`, the TGI is more than 10 µM.
With `O=C(O)c1cc[c]([Hg][S]c2ncnc3nc[nH]c23)cc1`, the GI50 is 8.37 µM and the TGI was found to be 23.5 µM.
Take `O=C(Nc1ccc(OC(F)(F)F)cc1)c1sccc1NCc1ccnc2ccccc12`: the GI50 is 3.74 µM and the TGI is more than 83.3 µM.
The compound `CCN(CC)c1ccc(NC(=S)NN(C)C)cc1` registered a TGI of more than 10 µM.
Take `Nc1cc(N)c2nc(-c3ccccc3)c(Oc3ccc(F)cc3)nc2c1`: the GI50 was 7.27 µM and the TGI worked out at 46.3 µM.
For `CN1CCCN(CCNc2nccc(-c3c(-c4cccc(O)c4)nc4sccn34)n2)S1(=O)=O`, the GI50 was 16.3 µM and 14.6 µM; the TGI was 75 µM and > 100 µM.
Regarding `CCOC(=O)c1c(NC(=O)c2ccc(C(C)C)cc2)sc2c(CN(C)C)c(O)ccc12`, the GI50 was 2.18 µM and the TGI was 5.71 µM.
The like results for `COc1ccc(C(=O)N2c3ccccc3Sc3ccccc32)c(F)c1` were, in that order, 0.407 µM and more than 100 µM.
`CC(O)CNC1=CC(=O)C(=O)c2ccccc21` (configuration not stated): the TGI was more than 100 µM.
As for `CC1(C)N=C(N)N=C(N)N1c1ccc(CCc2ccccc2)c(Cl)c1`, the GI50 is 0.0916 µM and the TGI is 12.1 µM.
Turning to `Cc1ccc(C(=O)Nc2ccc(CN3CCN(C)CC3)c(C(F)(F)F)c2)cc1C#Cc1cnc(N)c2ccc(F)cc12`, the GI50 was 0.508 µM and the TGI was 1.66 µM.
As for `CC1(C)CCC(C)(C)c2cc(C(=O)Nc3ccc(C(=O)O)cc3)ccc21`, the TGI was found to be 51.7 µM.
Compound `CC1=C(C(=O)NC2CCCCC2)CC(C(=O)NC2CCCCC2)=C(C)N1` gave a TGI of more than 100 µM.

In the next assay the test system is UACC-257 melanoma. Description: NCI anticancer screen, dose series, 48 h.
On to `COc1ccc(Cl)cc1Nc1nc(C(F)(F)F)ccc1C(=O)NN`, for which the GI50 was 3.87 µM and the TGI is more than 30.2 µM.
For the compound `CC(C)c1ccc2nc3ccc(C(=O)NCCN(C)C)cn3c(=O)c2c1`, the TGI is 27.8 µM.
`CNC(=O)Nc1ccc(-c2nc(N3CCOCC3)nc3c2cnn3C2CCOCC2)cc1`: the GI50 was 0.184 µM and the TGI amounted to 1.4 µM.
For `NCCCCNCCCNC(=O)CNC(=O)CC(O)C(N)CCCC(NC(=O)C(CN)NC(=O)C(O)CNC(=O)CC(N)c1ccc(O)cc1)C(=O)O` (configuration not stated), the TGI is more than 10 µM.
On to `N/C(=N\OC(=O)c1ccccc1)C(C(=O)NOC(=O)c1ccccc1)C1CCCCC1` (configuration not stated), for which the GI50 was 13.7 µM and the TGI is 28.7 µM.
`CCOc1ccc(N=Nc2ccc3cc(/C(C)=N/NC(=O)/C(C#N)=C\c4ccc(N(CCC#N)CCC#N)cc4)c(=O)oc3c2)cc1` displayed a TGI of more than 10 µM.
As to `O=C(O)c1cc[c]([Hg][S]c2ncnc3nc[nH]c23)cc1`, the GI50 was 10.4 µM and the TGI amounted to 22.9 µM.
As to `O=C(Nc1ccc(OC(F)(F)F)cc1)c1sccc1NCc1ccnc2ccccc12`, the GI50 was 3.62 µM and the TGI came out at 52.5 µM.
In turn, `CCN(CC)c1ccc(NC(=S)NN(C)C)cc1` registered a TGI of more than 10 µM.
